We go through 25 molecules from PubChem BioAssay (NCI).

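Following 48 hours of exposure in 96-well plates, responses at five concentrations were used to interpolate endpoints linearly. TGI: concentration producing complete growth inhibition.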

Usually TGI stands for the concentration at which net growth stops.

What all share (assay): DTP human tumour cell line panel, 48 h
Experiment [1] has as its system CCRF-CEM leukemia.
The test system of experiment [2] is HCC-2998 colon.
Experiment [3] deals with HOP-62 NSCLC.
For experiment [4], the system named is K-562 leukemia.
In experiment [5] the test system is KM12 colon.
For experiment [6], the system named is RPMI-8226 leukemia.
Experiment [7] relates to SF-268 CNS.
Experiment [8] deals with SK-MEL-28 melanoma.
For experiment [9], the system named is SK-MEL-5 melanoma.
Experiment [10] relates to SN12C renal.
Experiment [11] relates to UO-31 renal.

For the molecule `Cc1ccc2c(c1)CC1(C2)Cc2ccc(C)cc2C1=O` (stereo not given), the total growth inhibition concentration (TGI) in experiment [1] was 62.3 µM; in [2], 85 µM; in experiment [3] it was 97.8 µM; in experiment [4] it was greater than 100 µM; in [5], 53.6 µM; in experiment [6] it was 95.3 µM. Also, the TGI in [7] was greater than 100 µM; in [8], greater than 100 µM; in [9], 26 µM; in [10], greater than 100 µM; in [11] it was greater than 100 µM.

With `CCCCCCCCCCCCCCCCCCOCC(O)CO` (stereo not given), the concentration for total growth inhibition (TGI) in [1] is greater than 22.5 µM; in experiment [2], greater than 25 µM; in experiment [3], 22.7 µM; in [4], greater than 25 µM; in [5], greater than 25 µM; in experiment [6], greater than 25 µM. Further, the TGI in experiment [7] is greater than 25 µM; in [8], greater than 25 µM; in experiment [9], 3.65 µM; in experiment [10], greater than 25 µM; in experiment [11] it was 25 µM.

On to `CC(C)=CCOc1ccc(-c2coc3cc4c(c(O)c3c2=O)C=CC(C)(C)O4)cc1`, for which the total growth inhibition concentration (TGI) in experiment [1], in [2], in [3], in experiment [4], in [5] and in experiment [6] was greater than 100 µM in each case. Moreover, the TGI was greater than 100 µM in experiment [7]; greater than 100 µM in experiment [8]; 0.932 µM in experiment [9]; greater than 100 µM in [10]; greater than 100 µM in experiment [11].

As to `CCOC(=O)c1csc(-c2cn(C)c3c2C(=O)C(OC)=CC3=O)n1`, the total growth inhibition concentration (TGI) is greater than 100 µM in [1]; greater than 100 µM in experiment [2]; 74 µM in experiment [3]; greater than 100 µM in [4]; greater than 71.8 µM in experiment [5]; greater than 80.1 µM in experiment [6]. In addition, the TGI is greater than 100 µM in experiment [7]; greater than 100 µM in [8]; 12.7 µM in experiment [9]; greater than 100 µM in [10]; greater than 100 µM in experiment [11].

Turning to `CC(=O)N1N=C(c2ccc3ccccc3c2O)CC1c1ccc(N(C)C)cc1` (stereo not given), the TGI in experiment [1], in experiment [2], in [3], in [4], in experiment [5] and in experiment [6] was greater than 100 µM in each case. Also, the TGI in experiment [7], in experiment [8], in experiment [9], in experiment [10] and in [11] was greater than 100 µM each time.

Turning to `COC(=O)/C(C#N)=C/c1cc(C(C)(C)C)c(O)c(C(C)(C)C)c1`, the total growth inhibition concentration (TGI) in experiment [1] is 9.69 µM; in [2] it was 7.8 µM; in experiment [3], 11.3 µM; in [4], greater than 47.8 µM; in [5], 19.9 µM; in experiment [6], 3.54 µM. Besides, the TGI in [7] was greater than 40.5 µM; in [8], 15.4 µM; in [9], 3.39 µM; in experiment [10], 8.17 µM; in experiment [11], 10 µM.

In the case of `O=C1c2ccccc2C(=O)c2sc(Nc3ccc([N+](=O)[O-])cc3)nc21`, the TGI in experiment [1] is 5.37 µM; in experiment [2], 30.1 µM; in experiment [3], 27.1 µM; in experiment [4], 5.98 µM; in experiment [5] it was 25.8 µM; in [6], 9.1 µM. The TGI in [7] was 12.2 µM; in [8], 25.7 µM; in experiment [9], 6.38 µM; in [10], 8.15 µM; in [11], 8.94 µM.

`CCOC(=O)c1nc2cc(F)cc(F)c2[nH]c1=O`: the TGI in experiment [1], in [2], in [3], in experiment [4], in [5] and in experiment [6] was greater than 100 µM in each case. For the same molecule, the TGI in experiment [7], in [8], in experiment [9], in experiment [10] and in experiment [11] was greater than 100 µM in each case.

For the molecule `Cc1ccc(O)c(C(c2cc(C)ccc2O)c2cc([N+](=O)[O-])ccc2O)c1`, the TGI in [1] is 91 µM; in [2] it was 25.5 µM; in experiment [3] it was 26.3 µM; in experiment [4] it was greater than 100 µM; in experiment [5], 21.2 µM; in experiment [6], 50.6 µM. The TGI in experiment [7] was 24.6 µM; in experiment [8], 39.6 µM; in [9], greater than 100 µM; in experiment [10] it was 28.3 µM; in experiment [11], 21.5 µM.

Regarding `COc1cc(OC)nc(-n2c(N)c(C(=O)O)c3ccc([N+](=O)[O-])cc3c2=O)n1`, the TGI in experiment [1], in [2], in experiment [3], in experiment [4], in [5] and in experiment [6] was greater than 100 µM each time. In addition, the concentration for total growth inhibition (TGI) in experiment [7], in [8], in [9], in experiment [10] and in experiment [11] was greater than 100 µM throughout.

For `C[C@H]1S[C@H](c2c(F)cccc2F)n2c1nc1ccccc12`, the TGI in [1], in [2], in experiment [3], in experiment [4], in [5] and in experiment [6] was greater than 100 µM each time. For the same molecule, the TGI is greater than 100 µM in experiment [7]; greater than 100 µM in experiment [8]; 45.3 µM in experiment [9]; greater than 100 µM in experiment [10]; greater than 100 µM in experiment [11].

For the molecule `CC(O)C1OC(n2ccc(=O)[nH]c2=O)CC1n1cncn1` (stereo not given), the TGI in [1], in experiment [2], in experiment [3], in experiment [4], in [5] and in experiment [6] was greater than 100 µM each time. Besides, the TGI in experiment [7], in experiment [8], in [9], in experiment [10] and in experiment [11] was greater than 100 µM each time.

As for `COC1C(=O)N(SC)C1c1ccccc1Cl` (stereo not given), the TGI is 35.1 µM in [1]; 28.8 µM in experiment [2]; greater than 100 µM in experiment [3]; 66.2 µM in experiment [4]; greater than 100 µM in experiment [5]; 44.5 µM in [6]. Further, the total growth inhibition concentration (TGI) in experiment [7] was greater than 100 µM; in experiment [8] it was greater than 100 µM; in [9], greater than 100 µM; in experiment [10], 47.3 µM; in [11] it was 33.3 µM.

Turning to `CC12CCC(=O)[C@@]1(C)CCCC2O` (stereo not given in full), the total growth inhibition concentration (TGI) in [1], in experiment [2], in [3], in experiment [4], in experiment [5] and in experiment [6] was greater than 100 µM throughout. In addition, the TGI in [7], in experiment [8], in experiment [9], in experiment [10] and in experiment [11] was greater than 100 µM throughout.

For the molecule `COc1ccc(C2=NN(C(=O)c3ccc(Cl)cc3)C(O)(c3cc(F)c(Cl)cc3Cl)C2)cc1` (stereo not given), the TGI in experiment [1], in experiment [2], in experiment [3], in experiment [4], in [5] and in experiment [6] was greater than 100 µM throughout. Also, the concentration for total growth inhibition (TGI) is greater than 100 µM in experiment [7]; greater than 100 µM in experiment [8]; greater than 100 µM in [9]; greater than 100 µM in experiment [10]; 44.4 µM in experiment [11].

Turning to `COc1cc2c(cc1O)C(=O)O[C@@H]1CC=C3CCN(C)[C@H]3[C@H]21`, the TGI in [1], in [2], in [3], in [4], in experiment [5] and in experiment [6] was greater than 25 µM each time. Besides, the TGI in experiment [7], in experiment [8], in experiment [9], in [10] and in experiment [11] was greater than 25 µM each time.

Regarding `CN1N=C(c2ccccc2)c2cc(Cl)ccc2N=C1N/N=C/c1ccc(N(C)C)cc1`, the TGI in [1], in experiment [2], in experiment [3], in [4], in experiment [5] and in [6] was greater than 100 µM in each case. Besides, the TGI in [7], in experiment [8], in experiment [9], in experiment [10] and in experiment [11] was greater than 100 µM in each case.

With `COC(=O)[C@@H]1[C@H]2CC[C@]3(C)[C@@H](OC(C)=O)CC[C@H]3[C@@H]2CC[C@H]1C(C)=O`, the TGI in [1], in experiment [2], in experiment [3], in experiment [4], in experiment [5] and in experiment [6] was greater than 100 µM throughout. For the same molecule, the TGI in experiment [7], in experiment [8], in [9], in [10] and in [11] was greater than 100 µM in each case.

On to `CCOC(=O)c1ccn2c(c1)c(C#N)c1nc3ccccc3nc12`, for which the total growth inhibition concentration (TGI) was 68.4 µM in experiment [1]; greater than 100 µM in experiment [2]; greater than 100 µM in experiment [3]; greater than 100 µM in experiment [4]; greater than 100 µM in experiment [5]; greater than 100 µM in experiment [6]. Besides, the TGI in [7], in experiment [8], in [9], in experiment [10] and in experiment [11] was greater than 100 µM throughout.

Regarding `CC(=O)OCC1=CC2CCC3C(C)(CCC[C@]3(C)COC(C)=O)C23CC[C@H]1C3` (stereo not given in full), the TGI in [1] was 93.3 µM; in experiment [2], 86.3 µM; in experiment [3], greater than 100 µM; in [4] it was 73.3 µM; in experiment [5], greater than 100 µM; in experiment [6] it was 63.1 µM. Further, the concentration for total growth inhibition (TGI) in experiment [7] was greater than 100 µM; in experiment [8], greater than 100 µM; in experiment [9] it was 58.8 µM; in [10], greater than 100 µM; in [11], greater than 100 µM.

As for `NC(=O)NC(=O)c1cccc(NC(=O)CCl)c1`, the TGI in experiment [1] was 4.16 µM; in [2] it was 1.81 µM; in experiment [3] it was 4.71 µM; in [4], greater than 43.4 µM; in experiment [5] it was 2.43 µM; in experiment [6], 13.6 µM. Moreover, the TGI in experiment [7] was 8.29 µM; in experiment [8] it was greater than 62.2 µM; in experiment [9], 2.07 µM; in [10], 4.8 µM; in [11], 0.452 µM.

Take `COc1cc2c(cc1OC)[C@H]1C(COC(=O)Nc3ccccc3)CN1CC2` (stereo not given in full): the concentration for total growth inhibition (TGI) in experiment [1], in experiment [2], in experiment [3], in experiment [4], in experiment [5] and in experiment [6] was greater than 100 µM each time. In addition, the TGI in experiment [7], in experiment [8], in experiment [9], in [10] and in experiment [11] was greater than 100 µM each time.

Turning to `Oc1cccc2ccc(Br)nc12`, the TGI in [1], in [2], in experiment [3], in experiment [4], in experiment [5] and in [6] was greater than 100 µM in each case. Besides, the TGI in experiment [7], in experiment [8], in experiment [9], in [10] and in experiment [11] was greater than 100 µM throughout.

`O=C(NCc1ccccc1)C1C(=O)C(=O)N(Cc2ccccc2)C1=O` (stereo not given): the TGI in [1], in experiment [2], in [3], in [4], in experiment [5] and in [6] was greater than 100 µM throughout. For the same molecule, the TGI in [7], in experiment [8], in experiment [9], in experiment [10] and in [11] was greater than 100 µM throughout.

Regarding `Cc1cnc2[nH]c(-c3ccc(Cl)cc3)cc(=O)c2c1`, the TGI is greater than 100 µM in experiment [1]; 70.1 µM in [2]; greater than 100 µM in experiment [3]; 19.8 µM in experiment [4]; greater than 100 µM in [5]; greater than 60.3 µM in experiment [6]. For the same molecule, the TGI in experiment [7] was greater than 100 µM; in experiment [8] it was greater than 100 µM; in experiment [9] it was greater than 100 µM; in [10] it was greater than 100 µM; in experiment [11], greater than 60.5 µM.
